US20250179051A1, “PYRIMIDINLY-OXY-QUINOLINE BASED HERBICIDAL COMPOUNDS” (SYNGENTA CROP PROTECTION AG, priority 2022, published 2025)

What was measured:
Format in all cases: in vivo
Conditions in all cases: 250 g/ha, evaluated after 13 days, five-point scale
Setaria faberi (SETFA) [1] = experiment: Pre-emergence herbicide glasshouse test
How it was run: (§1)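 Pots were sprayed one day after sowing (pre-emergence) or after 8 days' growth (post-emergence) at 250 g/ha unless otherwise stated, in acetone/water 50:50 with 0.5% Tween 20. Plants were grown at 24/16 °C with 14 h light and 65% humidity. Damage was scored at 13 days on a five-point scale (5=81-100% to 1=0-20%).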

[2] = system: Echinochloa crus-galli (ECHCG); experiment: Pre-emergence herbicide glasshouse test
How it was run: as §1

[3] = system: Ipomoea hederacea (IPOHE); experiment: Pre-emergence herbicide glasshouse test
How it was run: as §1

[4] = system: Amaranthus retoflexus (AMARE); experiment: Pre-emergence herbicide glasshouse test
How it was run: as §1

[5] = system: Amaranthus palmeri (AMAPA); experiment: Pre-emergence herbicide glasshouse test
How it was run: as §1

Setaria faberi (SETFA) [6] = experiment: Post-emergence herbicide glasshouse test
How it was run: as §1

[7] = system: Echinochloa crus-galli (ECHCG); experiment: Post-emergence herbicide glasshouse test
How it was run: as §1

[8] = system: Ipomoea hederacea (IPOHE); experiment: Post-emergence herbicide glasshouse test
How it was run: as §1

[9] = system: Amaranthus retoflexus (AMARE); experiment: Post-emergence herbicide glasshouse test
How it was run: as §1

[10] = system: Amaranthus palmeri (AMAPA); experiment: Post-emergence herbicide glasshouse test
How it was run: as §1

SMILES	percentage damage caused to the plant, SETFA (Setaria faberi (SETFA) [1])	percentage damage caused to the plant, ECHCG [2]	percentage damage caused to the plant, IPOHE [3]	percentage damage caused to the plant, AMARE [4]	percentage damage caused to the plant, AMAPA [5]	percentage damage caused to the plant, SETFA (Setaria faberi (SETFA) [6])	percentage damage caused to the plant, ECHCG [7]	percentage damage caused to the plant, IPOHE [8]	percentage damage caused to the plant, AMARE [9]	percentage damage caused to the plant, AMAPA [10]
O=C(c1cccnc1)c1nc(C(F)(F)F)nc2cccc(Oc3ncc(Cl)cn3)c12 [Compound 1.030]	4 (4=61-80%)	4 (4=61-80%)	1 (1=0-20%)	5 (5=81-100%)	5 (5=81-100%)	2 (2=21-40%)	2 (2=21-40%)	2 (2=21-40%)	5 (5=81-100%)	5 (5=81-100%)
FC(F)(F)c1nc(CCC2CCOC2)c2c(Oc3ncc(Cl)cn3)cccc2n1 (centres unmarked) [Compound 1.031]	5 (5=81-100%)	5 (5=81-100%)	5 (5=81-100%)	5 (5=81-100%)	5 (5=81-100%)	5 (5=81-100%)	5 (5=81-100%)	5 (5=81-100%)	5 (5=81-100%)	4 (4=61-80%)
FC(F)(F)c1nc(CCC2CC2)c2c(Oc3ncc(Cl)cn3)cccc2n1 [Compound 1.032]	5 (5=81-100%)	5 (5=81-100%)	1 (1=0-20%)	5 (5=81-100%)	5 (5=81-100%)	5 (5=81-100%)	5 (5=81-100%)	4 (4=61-80%)	5 (5=81-100%)	4 (4=61-80%)
FC(F)(F)c1nc(CCC2COC2)c2c(Oc3ncc(Cl)cn3)cccc2n1 [Compound 1.033]	5 (5=81-100%)	5 (5=81-100%)	5 (5=81-100%)	4 (4=61-80%)	5 (5=81-100%)	5 (5=81-100%)	5 (5=81-100%)	5 (5=81-100%)	4 (4=61-80%)	2 (2=21-40%)
CC(=O)N1CCC(CCc2nc(C(F)(F)F)nc3cccc(Oc4ncc(Cl)cn4)c23)CC1 [Compound 1.034]	4 (4=61-80%)	2 (2=21-40%)	1 (1=0-20%)	2 (2=21-40%)	3 (3=41-60%)	5 (5=81-100%)	4 (4=61-80%)	2 (2=21-40%)	5 (5=81-100%)	4 (4=61-80%)
FC(F)c1cc(-c2nc(C(F)(F)F)nc3cccc(Oc4ncc(Cl)cn4)c23)on1 [Compound 1.035, 5-[5-(5-chloropyrimidin-2-yl)oxy-2-(trifluoromethyl)quinazolin-4-yl]-3-(difluoromethyl)isoxazole]	3 (3=41-60%)	2 (2=21-40%)	1 (1=0-20%)	5 (5=81-100%)	5 (5=81-100%)	2 (2=21-40%)	1 (1=0-20%)	1 (1=0-20%)	4 (4=61-80%)	4 (4=61-80%)
O=C(c1ccncc1)c1nc(C(F)(F)F)nc2cccc(Oc3ncc(Cl)cn3)c12 [Compound 1.036]	3 (3=41-60%)	3 (3=41-60%)	1 (1=0-20%)	3 (3=41-60%)	4 (4=61-80%)	1 (1=0-20%)	1 (1=0-20%)	1 (1=0-20%)	3 (3=41-60%)	3 (3=41-60%)
OCC(O)CCc1nc(C(F)(F)F)nc2cccc(Oc3ncc(Cl)cn3)c12 (centres unmarked) [Compound 1.037, 4-[5-(5-chloropyrimidin-2-yl)oxy-2-(trifluoromethyl)quinazolin-4-yl]butane-1,2-diol]	1 (1=0-20%)	1 (1=0-20%)	1 (1=0-20%)	1 (1=0-20%)	1 (1=0-20%)	1 (1=0-20%)	1 (1=0-20%)	1 (1=0-20%)	3 (3=41-60%)	3 (3=41-60%)
O=CCCc1nc(C(F)(F)F)nc2cccc(Oc3ncc(Cl)cn3)c12 [Compound 1.038, 3-[5-(5-chloropyrimidin-2-yl)oxy-2-(trifluoromethyl)quinazolin-4-yl]propanal]	1 (1=0-20%)	1 (1=0-20%)	1 (1=0-20%)	2 (2=21-40%)	1 (1=0-20%)	1 (1=0-20%)	1 (1=0-20%)	3 (3=41-60%)	4 (4=61-80%)	3 (3=41-60%)
OCCCc1nc(C(F)(F)F)nc2cccc(Oc3ncc(Cl)cn3)c12 [Compound 1.039, 3-[5-(5-chloropyrimidin-2-yl)oxy-2-(trifluoromethyl)quinazolin-4-yl]propan-1-ol]	2 (2=21-40%)	2 (2=21-40%)	1 (1=0-20%)	3 (3=41-60%)	2 (2=21-40%)	1 (1=0-20%)	1 (1=0-20%)	3 (3=41-60%)	4 (4=61-80%)	3 (3=41-60%)
FC(F)(F)c1nc(C2CC2)c2c(Oc3ncc(Cl)cn3)cccc2n1 [Compound 1.041, 5-(5-chloropyrimidin-2-yl)oxy-4-cyclopropyl-2-(trifluoromethyl)quinazoline]	5 (5=81-100%)	3 (3=41-60%)	1 (1=0-20%)	2 (2=21-40%)	5 (5=81-100%)	5 (5=81-100%)	3 (3=41-60%)	2 (2=21-40%)	5 (5=81-100%)	5 (5=81-100%)
FC(F)(F)c1nc(CCC2CCCCC2)c2c(Oc3ncc(Cl)cn3)cccc2n1 [Compound 1.045]	4 (4=61-80%)	4 (4=61-80%)	1 (1=0-20%)	3 (3=41-60%)	5 (5=81-100%)	2 (2=21-40%)	2 (2=21-40%)	3 (3=41-60%)	4 (4=61-80%)	4 (4=61-80%)
CCO/N=C\CCc1nc(C(F)(F)F)nc2cccc(Oc3ncc(Cl)cn3)c12 [Compound 1.047]	5 (5=81-100%)	5 (5=81-100%)	2 (2=21-40%)	4 (4=61-80%)	4 (4=61-80%)	5 (5=81-100%)	5 (5=81-100%)	5 (5=81-100%)	5 (5=81-100%)	4 (4=61-80%)
FC(F)(F)c1nc(CBr)c2c(Oc3ncc(Cl)cn3)cccc2n1 [Compound 1.048, 4-(bromomethyl)-5-(5-chloropyrimidin-2-yl)oxy-2-(trifluoromethyl)quinazoline]	4 (4=61-80%)	3 (3=41-60%)	1 (1=0-20%)	5 (5=81-100%)	5 (5=81-100%)	4 (4=61-80%)	2 (2=21-40%)	2 (2=21-40%)	5 (5=81-100%)	4 (4=61-80%)
